Data taken from the supplement of paper PMC6045584.
± gives the standard deviation of the averaged measurements.

Tests used:
AFATINIB [1] = compound: T1, CN(C)C/C=C/C(=O)Nc1cc2c(Nc3ccc(F)c(Cl)c3)ncnc2cc1O[C@H]1CCOC1 [AFATINIB]; assay: area under dose-response curve of surviving fraction (unscaled, Aref=0) (surviving fraction x log10(nM)); higher = more resistant; details: exposure time: 5 days; dose range 0.5-1000 nM
Summary of the method: (§1)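 Three screens per tumour cell line were run in 384-well plates at eight inhibitor concentrations from 0.5 to 1000 nM over five days. Surviving fractions, from CellTiter-Glo luminescence normalised to DMSO-only wells, were fitted with 3-parameter logistic curves in the drc R package. The reported area under the curve is the unscaled activity area. It spans log10 dose, and Aref is 0.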

SAPACITABINE [2] = compound: T2, CCCCCCCCCCCCCCCC(=O)Nc1ccn([C@@H]2O[C@H](CO)[C@@H](O)[C@@H]2C#N)c(=O)n1 [SAPACITABINE]; assay: as above; details: exposure time: 5 days; dose range 0.5-1000 nM
Summary of the method: as §1

CANERTINIB [3] = compound: T3, C=CC(=O)Nc1cc2c(Nc3ccc(F)c(Cl)c3)ncnc2cc1OCCCN1CCOCC1 [CANERTINIB]; assay: as above; details: exposure time: 5 days; dose range 0.5-1000 nM
Summary of the method: as §1

MDV3100 [4] = compound: T4, CNC(=O)c1ccc(N2C(=S)N(c3ccc(C#N)c(C(F)(F)F)c3)C(=O)C2(C)C)cc1F [MDV3100]; assay: as above; details: exposure time: 5 days; dose range 0.5-1000 nM
Summary of the method: as §1

BI-2536 [5] = compound: T5, CC[C@@H]1C(=O)N(C)c2cnc(Nc3ccc(C(=O)NC4CCN(C)CC4)cc3OC)nc2N1C1CCCC1 [BI-2536]; assay: as above; details: exposure time: 5 days; dose range 0.5-1000 nM
Summary of the method: as §1

TIOGUANINE [6] = compound: T6, Nc1nc2[nH]cnc2c(=S)[nH]1 [TIOGUANINE]; assay: as above; details: exposure time: 5 days; dose range 0.5-1000 nM
Summary of the method: as §1

SNX-5422 [7] = compound: T7, CC1(C)CC(=O)c2c(C(F)(F)F)nn(-c3ccc(C(N)=O)c(N[C@H]4CC[C@H](OC(=O)CN)CC4)c3)c2C1 [SNX-5422]; assay: as above; details: exposure time: 5 days; dose range 0.5-1000 nM
Summary of the method: as §1

AFATINIB [8] = compound: T1, AFATINIB; assay: surviving fraction relative to DMSO-only wells; higher = less growth inhibition; details: exposure time: 5 days
Summary of the method: (§2)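 Viability was scored with CellTiter-Glo luminescence and normalised to the median of DMSO-only wells as surviving fraction. Beforehand, log-phase tumour cell lines were seeded at 250–500 cells per well in 384-well plates, allowed 24 hours, and exposed continuously for five days to inhibitors at 0.5, 1, 5, 10, 50, 100, 500 and 1000 nM. Only lines whose three screens gave replicate Pearson r >0.7 and median Z' >0.3 were kept.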

SAPACITABINE [9] = compound: T2, SAPACITABINE; assay: as above; details: exposure time: 5 days
Summary of the method: as §2

[10] = compound: Cn1cc(C2=Nc3cc(NC(=O)C(N)C4CCCCC4)cc4c3C2=CNNC4=O)cn1; assay: as above; details: exposure time: 5 days
Summary of the method: as §2

CANERTINIB [11] = compound: T3, CANERTINIB; assay: as above; details: exposure time: 5 days
Summary of the method: as §2

MDV3100 [12] = compound: T4, MDV3100; assay: as above; details: exposure time: 5 days
Summary of the method: as §2

BI-2536 [13] = compound: T5, BI-2536; assay: as above; details: exposure time: 5 days
Summary of the method: as §2

TIOGUANINE [14] = compound: T6, TIOGUANINE; assay: as above; details: exposure time: 5 days
Summary of the method: as §2

SNX-5422 [15] = compound: T7, SNX-5422; assay: as above; details: exposure time: 5 days
Summary of the method: as §2

For SCC47 HEADNECK, the “area under dose-response curve” value (AFATINIB [1]) was 2.35, the “area under dose-response curve” value (SAPACITABINE [2]) was 3.12 and the “area under dose-response curve” value (CANERTINIB [3]) was 2.83. The “area under dose-response curve” value (MDV3100 [4]) was 3.22, the “area under dose-response curve” value (BI-2536 [5]) was 1.87 and the “area under dose-response curve” value (TIOGUANINE [6]) was 2.97. The “area under dose-response curve” value (SNX-5422 [7]) was 2.08, the surviving fraction (AFATINIB [8]; 0.5 nM) was 1.05 ± 0.021 and the surviving fraction (AFATINIB [8]; 1 nM) was 0.98 ± 0.078. The surviving fraction (AFATINIB [8]; 5 nM) was 0.88 ± 0.11, the surviving fraction (AFATINIB [8]; 10 nM) was 0.707 ± 0.037 and the surviving fraction (AFATINIB [8]; 50 nM) was 0.629 ± 0.064. For the same test system, the surviving fraction (AFATINIB [8]; 100 nM) was 0.604 ± 0.034, the surviving fraction (AFATINIB [8]; 500 nM) was 0.546 ± 0.026 and the surviving fraction (AFATINIB [8]; 1000 nM) was 0.373 ± 0.014. The surviving fraction (SAPACITABINE [9]; 0.5 nM) was 0.937 ± 0.093, the surviving fraction (SAPACITABINE [9]; 1 nM) was 0.939 ± 0.063 and the surviving fraction (SAPACITABINE [9]; 5 nM) was 0.982 ± 0.063. For the same test system, the surviving fraction (SAPACITABINE [9]; 10 nM) was 0.948 ± 0.072, the surviving fraction (SAPACITABINE [9]; 50 nM) was 1.05 ± 0.057 and the surviving fraction (SAPACITABINE [9]; 100 nM) was 0.988 ± 0.079. The surviving fraction (SAPACITABINE [9]; 500 nM) was 0.71 ± 0.033, the surviving fraction (SAPACITABINE [9]; 1000 nM) was 0.597 ± 0.0027 and the surviving fraction ([10]; 0.5 nM) was 1.02 ± 0.015. It also gave a surviving fraction ([10]; 1 nM) of 1.03 ± 0.13, a surviving fraction ([10]; 5 nM) of 1.1 ± 0.065 and a surviving fraction ([10]; 10 nM) of 1.08 ± 0.11. For the same test system, the surviving fraction ([10]; 50 nM) was 1 ± 0.027, the surviving fraction ([10]; 100 nM) was 1.01 ± 0.054 and the surviving fraction ([10]; 500 nM) was 0.981 ± 0.011. It also gave a surviving fraction ([10]; 1000 nM) of 0.81 ± 0.094, a surviving fraction (CANERTINIB [11]; 0.5 nM) of 0.828 ± 0.025 and a surviving fraction (CANERTINIB [11]; 1 nM) of 0.921 ± 0.088. For the same test system, the surviving fraction (CANERTINIB [11]; 5 nM) was 0.881 ± 0.048, the surviving fraction (CANERTINIB [11]; 10 nM) was 0.889 ± 0.028 and the surviving fraction (CANERTINIB [11]; 50 nM) was 0.9577 ± 0.0083. The surviving fraction (CANERTINIB [11]; 100 nM) was 0.805 ± 0.032, the surviving fraction (CANERTINIB [11]; 500 nM) was 0.681 ± 0.015 and the surviving fraction (CANERTINIB [11]; 1000 nM) was 0.432 ± 0.044. The surviving fraction (MDV3100 [12]; 0.5 nM) was 0.936 ± 0.15, the surviving fraction (MDV3100 [12]; 1 nM) was 0.826 ± 0.021 and the surviving fraction (MDV3100 [12]; 5 nM) was 1 ± 0.04. For the same test system, the surviving fraction (MDV3100 [12]; 10 nM) was 1.05 ± 0.21, the surviving fraction (MDV3100 [12]; 50 nM) was 1.09 ± 0.17 and the surviving fraction (MDV3100 [12]; 100 nM) was 1.03 ± 0.14. The surviving fraction (MDV3100 [12]; 500 nM) was 0.906 ± 0.04, the surviving fraction (MDV3100 [12]; 1000 nM) was 0.829 ± 0.11 and the surviving fraction (BI-2536 [13]; 0.5 nM) was 1.05 ± 0.095. It also gave a surviving fraction (BI-2536 [13]; 1 nM) of 1.01 ± 0.066, a surviving fraction (BI-2536 [13]; 5 nM) of 0.455 ± 0.013 and a surviving fraction (BI-2536 [13]; 10 nM) of 0.367 ± 0.034. The surviving fraction (BI-2536 [13]; 50 nM) was 0.403 ± 0.046, the surviving fraction (BI-2536 [13]; 100 nM) was 0.464 ± 0.045 and the surviving fraction (BI-2536 [13]; 500 nM) was 0.437 ± 0.018. For the same test system, the surviving fraction (BI-2536 [13]; 1000 nM) was 0.356 ± 0.02, the surviving fraction (TIOGUANINE [14]; 0.5 nM) was 0.796 ± 0.02 and the surviving fraction (TIOGUANINE [14]; 1 nM) was 0.834 ± 0.05. It also gave a surviving fraction (TIOGUANINE [14]; 5 nM) of 0.969 ± 0.043, a surviving fraction (TIOGUANINE [14]; 10 nM) of 0.961 ± 0.061 and a surviving fraction (TIOGUANINE [14]; 50 nM) of 0.98 ± 0.035. For the same test system, the surviving fraction (TIOGUANINE [14]; 100 nM) was 0.966 ± 0.045, the surviving fraction (TIOGUANINE [14]; 500 nM) was 0.854 ± 0.082 and the surviving fraction (TIOGUANINE [14]; 1000 nM) was 0.803 ± 0.039. It also gave a surviving fraction (SNX-5422 [15]; 0.5 nM) of 1.09 ± 0.084, a surviving fraction (SNX-5422 [15]; 1 nM) of 1.17 ± 0.07 and a surviving fraction (SNX-5422 [15]; 5 nM) of 1.14 ± 0.069. For the same test system, the surviving fraction (SNX-5422 [15]; 10 nM) was 1.12 ± 0.048, the surviving fraction (SNX-5422 [15]; 50 nM) was 0.483 ± 0.0098 and the surviving fraction (SNX-5422 [15]; 100 nM) was 0.184 ± 0.015. The surviving fraction (SNX-5422 [15]; 500 nM) was 0.0747 ± 0.0047 and the surviving fraction (SNX-5422 [15]; 1000 nM) was 0.071 ± 0.0027.
